# From paper PMC7434893 (British Journal of Cancer, 2020)
# How the values were obtained:
# [1] = test system: MDA-MB-157; test: 8-day growth inhibition; format: cell-based; details: Breast, MDA-MB-157, 8-day assay
# [2] = test system: T47D; test: 8-day growth inhibition; format: cell-based; details: Breast, 8-day assay
# [3] = test system: MDA-MB-436; test: 8-day growth inhibition; format: cell-based; details: Breast, MDA-MB-436, 8-day assay
# [4] = test system: PARP2; details: read-out: IC50, enzymatic activity of PARP2; cited from earlier work
# [5] = test system: HEC-1; test: 8-day growth inhibition; format: cell-based; details: Endometrial, HEC-1, 8-day assay
# [6] = test system: MFE-280; test: 8-day growth inhibition; format: cell-based; details: Endometrial, MFE-280, 8-day assay
# [7] = test system: MC/CAR; test: 8-day growth inhibition; format: cell-based; details: Myeloma, 8-day assay
# [8] = test system: M14; test: 8-day growth inhibition; format: cell-based; details: Melanoma, M14, 8-day assay
# [9] = test system: NCI-H446; test: 8-day growth inhibition; format: cell-based; details: SCLC, NCI-H446, 8-day assay
# [10] = test system: MFE-296; test: 8-day growth inhibition; format: cell-based; details: Endometrial, MFE-296, 8-day assay
# [11] = test system: NCI-H69; test: 8-day growth inhibition; format: cell-based; details: SCLC, NCI-H69, 8-day assay
# [12] = test system: NCI-H209; test: 8-day growth inhibition; format: cell-based; details: SCLC, NCI-H209, 8-day assay
# [13] = test system: HCC70; test: 8-day growth inhibition; format: cell-based; details: Breast, HCC70, 8-day assay
# [14] = test system: HEC-88nu; test: 8-day growth inhibition; format: cell-based; details: Endometrial, 8-day assay
# [15] = test system: U937; test: 8-day growth inhibition; format: cell-based; details: Histiocytic lymphoma - monocytic, U937, 8-day assay
# [16] = test system: DU145; test: 8-day growth inhibition; format: cell-based; details: Prostate, DU145, 8-day assay
# [17] = test system: PARP; details: 100 mg/kg, preclinical studies; cited from earlier work
# [18] = test system: HEC-151; test: 8-day growth inhibition; format: cell-based; details: Endometrial, HEC-151, 8-day assay
structure (smiles),measurement,setting,value
O=c1[nH]nc2c3c(cccc13)N=C(CN1Cc3ccccc3C1)N2 [E7449],IC50,[1],6800 nM
same,IC50,[2],7800 nM
same,IC50,[3],190 nM
same,IC50,[5],1280 nM
same,IC50,[6],770 nM
same,IC50,[7],2300 nM
same,IC50,[8],6700 nM
same,IC50,[9],610 nM
same,IC50,[10],670 nM
same,IC50,[11],1330 nM
same,IC50,[12],620 nM
same,IC50,[13],9300 nM
same,IC50,[14],1140 nM
same,IC50,[15],2700 nM
same,IC50,[16],1800 nM
same,PARP inhibition in tumours,[17],sustained PARP inhibition
same,IC50,[18],1440 nM
